Results published in PubChem BioAssay (NCI).
Several values for one entry are separate records, joined by “and”; a condition that tells them apart may be missing. Identical values can stand only once.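 Assay format: 96-well plates, 48-hour exposure. GI50 is the concentration that inhibits growth by half. TGI denotes the concentration required for complete inhibition of growth.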

Tests used:
Experiment in all cases: growth of human tumour cells (NCI), 48 h
IGROV1 ovarian = tested on: IGROV1 ovarian
EKVX NSCLC = tested on: EKVX NSCLC
PC-3 prostate = tested on: PC-3 prostate
SK-MEL-5 melanoma = tested on: SK-MEL-5 melanoma
KM12 colon = tested on: KM12 colon
MCF7 breast = tested on: MCF7 breast
A498 renal = tested on: A498 renal
HL-60(TB) leukemia = tested on: HL-60(TB) leukemia
HCT-15 colon = tested on: HCT-15 colon
SR leukemia = tested on: SR leukemia

Compound	TGI (IGROV1 ovarian)	TGI (EKVX NSCLC) [µM]	TGI (PC-3 prostate)	TGI (SK-MEL-5 melanoma) [µM]	TGI (KM12 colon) [µM]	TGI (MCF7 breast) [µM]	TGI (A498 renal)	TGI (HL-60(TB) leukemia) [µM]	TGI (HCT-15 colon) [µM]	TGI (SR leukemia) [µM]	GI50 (IGROV1 ovarian)	GI50 (PC-3 prostate)	GI50 (KM12 colon)	GI50 (MCF7 breast)	GI50 (A498 renal)	GI50 (HL-60(TB) leukemia)	GI50 (EKVX NSCLC) [µM]	GI50 (SK-MEL-5 melanoma) [µM]	GI50 (HCT-15 colon) [µM]	GI50 (SR leukemia) [µM]
Cc1cc(N(CCOS(C)(=O)=O)CCOS(C)(=O)=O)ccc1C=Nc1ccc(-c2csc(-c3ccc(Br)cc3)n2)cc1	22.5 µM	37.7	86.8 µM	34.1	21.6	43.8	6.4 µM	55.9	50.3	> 94.3										
O=C(O)CCSC(=S)Nc1ccc([N+](=O)[O-])cc1	> 100 µM	> 100	> 100 µM	34.5	> 100	> 100	> 100 µM	48.6	> 100	52.9										
O=S(=O)(CCCCl)SCCCCl	> 67.5 µM	> 100	> 100 µM	> 94.1	> 100	52.5	> 100 µM	24.5	54.7	60.1										
COc1ccc(C2c3c(-c4ccccc4)nn(-c4ccccc4)c3Oc3ncn4nc(CC#N)nc4c32)cc1OC (stereo not given)	41.7 µM and > 47 µM	> 76.3	> 100 µM and 49.1 µM	> 100	> 100	> 100	> 100 µM and 31.3 µM	> 100	> 100	33	16.8 µM and 5.81 µM	32.6 µM and 12.3 µM	78.2 µM and > 22.1 µM	36.5 µM and 99.4 µM	> 100 µM and 10.8 µM	30.4 µM and > 100 µM				
C=C(CN(C)C)C(=O)c1ccc(Oc2ccccc2)cc1	30.8 µM	44	11.6 µM	19.8	29.8	15.6	42.1 µM	3.46	11	4.24										
CC#CC(=O)N1CC[C@@H](n2c(=O)n(-c3ccc(Oc4ccccc4)cc3)c3c(N)ncnc32)C1	60.8 µM	> 100	> 100 µM	38.8	> 100	> 100	44.6 µM	77.4	> 100	> 100	15.2 µM	29.1 µM	32.9 µM	23.5 µM	6.38 µM	23.5 µM	19.7	16.9	26.3	14.3
COc1ccc(C2CC(=O)c3c(O)c(OC)c(OC)c(OC)c3O2)cc1O (stereo not given)	> 100 µM	> 100	> 100 µM	6.87	> 100	> 100	33.2 µM		> 100	> 100	0.976 µM	0.0642 µM	0.0585 µM	0.124 µM	2.34 µM	0.0263 µM	0.53	0.219	0.0459	0.0467
Nc1nc(-c2ccc(Cl)cc2)cc(-c2ccccc2)c1-c1nc2ccccc2o1	49 µM	28	16.8 µM	29.4	8.17	> 100	30.5 µM	9.23	28.3	8.97	12.5 µM	4.62 µM	2.65 µM	3.1 µM	15.8 µM	3.47 µM	12.4	14.6	6.15	3.37
CCCCCC/C=C1\CCC(CN(C)C)C1=O (stereo not given)	26.5 µM	42.3	24 µM	27.5	6.68	14.7	32.1 µM	4.8	6.61	11.7										
Nc1nc(-c2ccccc2)cc(-c2ccc(Cl)cc2)c1-c1nc2ccccc2o1	28.5 µM	27.7	14.2 µM	25.4	20.7	16.2	30.3 µM	17	23.2	8.11	12.9 µM	2.95 µM	5.65 µM	2.31 µM	16.7 µM	4.42 µM	14	12.8	10.4	3.08
CCOCCOC[C@H]1CCCN(c2ccnc3sc(C(N)=O)c(N)c23)C1	> 100 µM	> 100	> 100 µM	36.9	> 100	> 100	> 100 µM	> 100	> 100	> 100	35 µM	21.7 µM	36.6 µM	25.1 µM	> 100 µM	48.7 µM	27.9	4.05	> 100	11
Cc1c(-c2nnc(-c3cc(Cl)c(Cl)cc3Cl)o2)nnn1-c1ccnc2c(C(F)(F)F)cccc12	71.7 µM	73.9	37.4 µM	32.5	67.4	45.1	76.3 µM	> 100	> 100	47.5	27.1 µM	15.9 µM	24.6 µM	20.3 µM	30.3 µM	40.9 µM	23.7	17.3	31.5	20.6
